Common to all, as to assay type: cell-based
Experiment [1] has as its system primary human fibroblasts derived from IPF patients (LL29 cells) treated with TGF-β1. Briefly: Inhibition of the fibrotic process: αSMA staining in TGF-β1 treated LL29 fibroblasts. To be noted: Fibroblast; for EC50: 96 h, % αSMA positive LL29 cells, TGF-β1 20 ng/mL, 4 days; for inhibition at 10 µM: read-out: percent inhibition at 10 μM. The method in brief:
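IPF-patient-derived LL29 lung fibroblasts in F12 with 1% FBS, stimulated with TGF-β1 alongside compound; TGF-β1 plus DMSO wells served as controls. After 4 days, nuclei stained with 1 μM SYTOX green for 30 min at room temperature, alongside αSMA staining.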

The next experiment has as its system SW480 colon cancer cells. Briefly: Cell viability assay (CellTiter-Blue) in SW480 colon cancer cells. To be noted: Homo sapiens; for EC50: 96 h, SW480 cell viability, four days; for inhibition at 10 µM: SW480, read-out: percent inhibition at 10 μM. The gist of the method: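 Fluorescence from resazurin reduced to resorufin by metabolically active cells was the read-out, taken after ~3 h with CellTiter-Blue.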

In the next experiment the test system is IL-6 (THP-1 cells). Briefly: IL-6 inhibition in LPS-stimulated THP-1 monocytes (HTRF). To be noted: Homo sapiens; for EC50: IL-6, THP-1 cells, LPS 500 ng/mL, 22 hours; for inhibition at 10 µM: THP-1, read-out: percent inhibition at 10 μM. The gist of the method:
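THP-1 cells kept 24 h in 1% FBS medium, exposed to compound 2 h at 37 °C, then stimulated with 500 ng/mL LPS for 22 h. Secreted IL-6 quantified by HTRF (665/620 nm ratio), duplicates. Values normalized to DMSO; EC50 by four-parameter variable-slope regression.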
(In general: TR-FRET usually uses a lanthanide donor and a delayed reading to cut background.)

Experiment [2] concerns Wnt activity (Sp5-Luc reporter, SW480 colon carcinoma cells). Briefly: Screening assay for Wnt activity: Sp5-Luc reporter gene assay in SW480 colon carcinoma cells. The settings on record: Homo sapiens; for EC50: Sp5-Luc reporter, SW480 cells, overnight incubation; for inhibition at 10 µM: SW480, read-out: percent inhibition at 10 μM. The method in brief:
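SW480 colon carcinoma cells stably carrying Sp5 promoter (eight TCF/LEF sites)-driven firefly luciferase, plated at 4,000 cells/well in 1% FBS medium and incubated overnight at 37° C. Luminescence normalised to DMSO-only cells; EC50 from four-parameter variable-slope nonlinear regression.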

Experiment [3] relates to primary human mesenchymal stem cells (hMSCs). Briefly: Induction of chondrogenesis in hMSCs (chondrogenic nodules, Rhodamine B/Nile Red). The settings on record: 6 days; for EC50: concentration required to induce 50% levels of chondrogenesis vs TGF-β3, read-out: Conc (nM) of 50% TGF-β3 activity; for Emax: relative to TGF-β3 (10 ng/mL) positive control, read-out: Max. Activity as % TGF-β3 activity. The source says:
Representative compounds were screened using primary human mesenchymal stem cells (hMSCs) to determine their ability to induce chondrogenesis (process by which cartilage is developed).
Human Mesenchymal Stem Cell Culture: Primary human mesenchymal stem cells (hMSCs) were purchased from Lonza (Walkersville, Md.) and expanded in Mesenchymal Stem Cell Growth Media (Lonza). Cells between passage 3 and 6 were used for the experiments.
Number of nodules in each well was normalized to the average of 3 DMSO treated wells on the same plate using Excel (Microsoft Inc.). The normalized averages (fold change over DMSO) of 3 replicate wells for each compound concentration were calculated. Due to solubility limitations of some of the compounds, curve fitting was incomplete leading to inaccurate EC50 determinations.
Using TGF-β3 as a positive control, the concentration of representative compounds required to induce 50% levels of chondrogenesis is reported. In addition, the maximum activity of each compound and the respective dose that each compound reached maximum chondrogenesis activity is reported.

Consider 13 compounds from patent US10206908B2, “3-(1H-pyrrolo[3,2-C]pyridin-2-YL)-1H-pyrazolo[3,4-C]pyridines and therapeutic uses thereof” (Samumed, LLC, priority 2015, dated 2019).

A word on the inhibition: it is how much of the control response was suppressed.

Consider `CC(C)C(=O)Nc1cncc(-c2cc3c(-c4cc5cnccc5[nH]4)n[nH]c3cn2)c1` [Compound 261, N-(5-(3-(1H-Pyrrolo[3,2-c]pyridin-2-yl)-1H-pyrazolo[3,4-c]pyridin-5-yl)pyridin-3-yl)isobutyramide], for which the EC50 in experiment [1] was 0.472 µM; in the experiment with SW480 colon cancer cells, 2.25 µM; in the experiment with IL-6 (THP-1 cells) it was 0.623 µM; in experiment [2], 0.399 µM; in experiment [3], 30 nM. Besides, the Emax in experiment [3] is 61%.

`O=C(Nc1cncc(-c2cc3c(-c4cc5cnccc5[nH]4)n[nH]c3cn2)c1)c1ccccc1` [Compound 263, N-(5-(3-(1H-Pyrrolo[3,2-c]pyridin-2-yl)-1H-pyrazolo[3,4-c]pyridin-5-yl)pyridin-3-yl)benzamide]: the EC50 in experiment [1] is 0.097 µM; with SW480 colon cancer cells, above 10 µM; in the experiment with IL-6 (THP-1 cells) it was above 10 µM; in experiment [2] it was 0.58 µM; in experiment [3] it was 10 nM. For the same compound, the figures for the inhibition at 10 µM in the experiment on SW480 colon cancer cells and in the experiment on IL-6 (THP-1 cells) were 8.5% and 10.3%, respectively. In experiment [3], the Emax turned out to be 152%.

For `CC(C)(C)CC(=O)Nc1cncc(-c2cc3c(-c4cc5cnccc5[nH]4)n[nH]c3cn2)c1` [Compound 268, N-(5-(3-(1H-Pyrrolo[3,2-c]pyridin-2-yl)-1H-pyrazolo[3,4-c]pyridin-5-yl)pyridin-3-yl)-3,3-dimethylbutanamide], the EC50 in experiment [1] amounted to 4.01 µM; in the experiment with SW480 colon cancer cells, 5.04 µM; in the experiment with IL-6 (THP-1 cells), 3.46 µM; in experiment [2], 1.89 µM; in experiment [3], 10 nM. Also, the Emax in experiment [3] worked out at 59%.

As to `CCCCC(=O)Nc1cncc(-c2cc3c(-c4cc5cnccc5[nH]4)n[nH]c3cn2)c1` [Compound 271, N-(5-(3-(1H-Pyrrolo[3,2-c]pyridin-2-yl)-1H-pyrazolo[3,4-c]pyridin-5-yl)pyridin-3-yl)pentanamide], the EC50 in experiment [1] is 4.69 µM; in the experiment on SW480 colon cancer cells, above 10 µM; in the experiment with IL-6 (THP-1 cells), 4.61 µM; in experiment [2], 3.88 µM. The inhibition at 10 µM with SW480 colon cancer cells came to 26.2%. In addition, the Emax in experiment [3] was found to be 50%.

Take `O=C(Nc1cncc(-c2cc3c(-c4cc5cnccc5[nH]4)n[nH]c3cn2)c1)C1CC1` [Compound 272, N-(5-(3-(1H-Pyrrolo[3,2-c]pyridin-2-yl)-1H-pyrazolo[3,4-c]pyridin-5-yl)pyridin-3-yl)cyclopropanecarboxamide]: the EC50 in experiment [1] was 1.9 µM; with SW480 colon cancer cells, above 10 µM; in the experiment on IL-6 (THP-1 cells), above 10 µM; in experiment [2], 1.54 µM; in experiment [3], 30 nM. Moreover, the inhibition at 10 µM in the experiment with SW480 colon cancer cells is 18.6%; in the experiment on IL-6 (THP-1 cells) it was 9.6%. For the same compound, the Emax in experiment [3] worked out at 58%.

Take `O=C(Nc1cncc(-c2cc3c(-c4cc5cnccc5[nH]4)n[nH]c3cn2)c1)C1CCCCC1` [Compound 275, N-(5-(3-(1H-Pyrrolo[3,2-c]pyridin-2-yl)-1H-pyrazolo[3,4-c]pyridin-5-yl)pyridin-3-yl)cyclohexanecarboxamide]: the EC50 in experiment [1] was determined as 1.88 µM; in the experiment with SW480 colon cancer cells, 5.2 µM; with IL-6 (THP-1 cells), 2.69 µM; in experiment [2], 1.62 µM; in experiment [3], 30 nM. Moreover, in experiment [3], the Emax came out at 59%.

Take `CC(C)CC(=O)Nc1cncc(-c2cc3c(-c4cc5c(-c6cccs6)nccc5[nH]4)n[nH]c3cn2)c1` [Compound 338, 3-Methyl-N-(5-(3-(4-(thiophen-2-yl)-1H-pyrrolo[3,2-c]pyridin-2-yl)-1H-pyrazolo[3,4-c]pyridin-5-yl)pyridin-3-yl)butanamide]: the EC50 in experiment [1] was determined as 0.155 µM; in the experiment with SW480 colon cancer cells, 0.44 µM; in the experiment with IL-6 (THP-1 cells), 0.449 µM; in experiment [2] it was 0.572 µM; in experiment [3] it was 10 nM. Besides, in experiment [3], the Emax was 81%.

As to `CN(C)c1cncc(-c2cc3c(-c4cc5c(-c6cccs6)nccc5[nH]4)n[nH]c3cn2)c1` [Compound 343, N,N-Dimethyl-5-(3-(4-(thiophen-2-yl)-1H-pyrrolo[3,2-c]pyridin-2-yl)-1H-pyrazolo[3,4-c]pyridin-5-yl)pyridin-3-amine], the EC50 in experiment [1] was 0.694 µM; in the experiment with SW480 colon cancer cells, 0.611 µM; in the experiment with IL-6 (THP-1 cells) it was above 10 µM; in experiment [2], 1.49 µM; in experiment [3], 300 nM. Besides, in the experiment on IL-6 (THP-1 cells), the inhibition at 10 µM amounted to 0%. Besides, in experiment [3], the Emax was 51%.

For `c1csc(-c2nccc3[nH]c(-c4n[nH]c5cnc(-c6cncc(CN7CCCCC7)c6)cc45)cc23)c1` [Compound 351, 5-(5-(Piperidin-1-ylmethyl)pyridin-3-yl)-3-(4-(thiophen-2-yl)-1H-pyrrolo[3,2-c]pyridin-2-yl)-1H-pyrazolo[3,4-c]pyridine], the EC50 in experiment [1] was 1.99 µM; in the experiment on SW480 colon cancer cells, 2.4 µM; with IL-6 (THP-1 cells), above 10 µM; in experiment [2] it was 3.65 µM; in experiment [3] it was 10 nM. The inhibition at 10 µM with IL-6 (THP-1 cells) is 0%. Moreover, the Emax in experiment [3] was 59%.

As for `CC(C)C(=O)Nc1cncc(-c2cc3c(-c4cc5c(-c6cc(F)cc(CNS(C)(=O)=O)c6)nccc5[nH]4)n[nH]c3cn2)c1` [Compound 485, N-(5-(3-(4-(3-Fluoro-5-(methylsulfonamidomethyl)phenyl)-1H-pyrrolo[3,2-c]pyridin-2-yl)-1H-pyrazolo[3,4-c]pyridin-5-yl)pyridin-3-yl)isobutyramide], the EC50 was above 10 µM in experiment [1]; above 10 µM in the experiment on SW480 colon cancer cells; above 10 µM with IL-6 (THP-1 cells); above 10 µM in experiment [2]; 30 nM in experiment [3]. Moreover, the inhibition at 10 µM in experiment [1] amounted to 0%; in the experiment with SW480 colon cancer cells it was 10.5%; in the experiment with IL-6 (THP-1 cells), 47.8%; in experiment [2], 43.9%. Besides, in experiment [3], the Emax is 80%.

`CCCCC(=O)Nc1cncc(-c2cc3c(-c4cc5c(-c6cc(F)cc(CNS(C)(=O)=O)c6)nccc5[nH]4)n[nH]c3cn2)c1` [Compound 495, N-(5-(3-(4-(3-Fluoro-5-(methylsulfonamidomethyl)phenyl)-1H-pyrrolo[3,2-c]pyridin-2-yl)-1H-pyrazolo[3,4-c]pyridin-5-yl)pyridin-3-yl)pentanamide]: the EC50 in experiment [1] is above 10 µM; in the experiment on SW480 colon cancer cells, above 10 µM; in the experiment on IL-6 (THP-1 cells), above 10 µM; in experiment [2], above 10 µM; in experiment [3] it was 10 nM. In addition, the inhibition at 10 µM in experiment [1] came out at 3.3%; with SW480 colon cancer cells it was 0%; in the experiment on IL-6 (THP-1 cells), 34.8%; in experiment [2], 29.6%. In experiment [3], the Emax came out at 111%.

For the compound `CS(=O)(=O)NCc1cc(F)cc(-c2nccc3[nH]c(-c4n[nH]c5cnc(-c6cncc(NC(=O)C7CCC7)c6)cc45)cc23)c1` [Compound 497, N-(5-(3-(4-(3-Fluoro-5-(methylsulfonamidomethyl)phenyl)-1H-pyrrolo[3,2-c]pyridin-2-yl)-1H-pyrazolo[3,4-c]pyridin-5-yl)pyridin-3-yl)cyclobutanecarboxamide], the EC50 (in experiment [1]; in the experiment with SW480 colon cancer cells; with IL-6 (THP-1 cells); in experiment [2]) was above 10 µM each time. The inhibition at 10 µM in experiment [1] was 0%; with SW480 colon cancer cells, 12.8%; in the experiment with IL-6 (THP-1 cells), 38.8%; in experiment [2], 27.2%. The Emax in experiment [3] is 16%.

For `CS(=O)(=O)NCc1cc(F)cc(-c2nccc3[nH]c(-c4n[nH]c5cnc(-c6cncc(CNCC7CCCC7)c6)cc45)cc23)c1` [Compound 501, N-(3-(2-(5-(5-(((Cyclopentylmethyl)amino)methyl)pyridin-3-yl)-1H-pyrazolo[3,4-c]pyridin-3-yl)-1H-pyrrolo[3,2-c]pyridin-4-yl)-5-fluorobenzyl)methanesulfonamide], the EC50 in experiment [1] is above 10 µM; with SW480 colon cancer cells, above 10 µM; with IL-6 (THP-1 cells), 3.42 µM; in experiment [2] it was above 10 µM; in experiment [3], 30 nM. Besides, the inhibition at 10 µM came to 41.7% in experiment [1], 23% in the experiment on SW480 colon cancer cells and 49.3% in experiment [2]. Moreover, the Emax in experiment [3] turned out to be 52%.
